# Read-outs that look alike come from different tables or passages of the source.
# How the values were obtained:
# M1R = target: T1, M1R (Homo sapiens, UniProt P11229); assay: FLIPR assay in CHO-M1 cells (carbachol-induced Ca2+); format: cell-based; details: DK pretreatment one hour
# T1 construct: expressed in transfected cells
# Description: FLIPR assay was carried out as reported earlier. Cell lines were seeded in 96-well plates with black walls (Greiner, USA) at 8.0 × 10^4 cells per well. After approximately 22 h of incubation, the cells were exposed to Calcium-6 dye (Molecular Devices, USA) in HBSS buffer supplemented with 20 mM HEPES (pH 7.4) at 37°C for one hour. Samples, redissolved in DMSO and housed in 96-well drug plates, underwent dilution with FLIPR buffer and subsequent automated introduction to the cells. […] […] Results were presented as fluorescence (arbitrary units) plotted against time.
# CHO cells = assay: Cytotoxicity assay (CCK-8), CHO; format: cell-based; details: 24 h
# Description: HEK293T, CHO, and HUVEC cell lines were cultured overnight in 96-well plates before exposure to compounds for 24 h. Cell viability was evaluated using the Cell Counting Kit-8 (CCK-8, Beyotime Biotechnology, China), and absorbance at 450 nm was measured with a microplate reader. Cell survival rates were calculated relative to control conditions.
# Kappa opioid receptor = target: T2, Kappa opioid receptor (Homo sapiens, UniProt P41145); assay: DMR agonist and desensitization assay in HEK293-Kappa cells; format: cell-based
# T2 construct: expressed in transfected cells; host or cells: HEK293-Kappa
# T2 sequence (P41145 whole entry): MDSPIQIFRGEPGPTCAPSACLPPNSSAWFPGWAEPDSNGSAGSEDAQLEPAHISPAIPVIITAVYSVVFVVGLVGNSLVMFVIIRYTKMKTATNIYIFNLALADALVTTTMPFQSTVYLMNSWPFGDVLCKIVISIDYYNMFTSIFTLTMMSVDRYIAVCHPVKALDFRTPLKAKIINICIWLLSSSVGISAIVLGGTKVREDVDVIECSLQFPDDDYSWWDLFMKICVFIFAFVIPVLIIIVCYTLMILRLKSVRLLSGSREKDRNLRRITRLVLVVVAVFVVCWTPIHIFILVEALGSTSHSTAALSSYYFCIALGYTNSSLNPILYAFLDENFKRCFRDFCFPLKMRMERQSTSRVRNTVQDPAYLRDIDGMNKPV
# Description: (§1) DMR assays were performed using an Epic® BT system (Corning, NY, USA). All used cell lines were directly seeded in Epic 384-well biosensor microplates with a seeding density of 25,000 cells per well. After being cultured for about 22 h, the cells formed a monolayer with a confluency of about 95 % in the cell culture medium. Then the cells were manually washed using assay buffer (1 × HBSS buffer, 10 mM HEPES, pH = 7.4) and maintained in 30 μL of the assay buffer for 1 h. All samples were dissolved in DMSO and diluted freshly with the assay buffer containing 0.1 % BSA.
# The DMR assays were conducted as follows. […] In the case of the DMR desensitization assay, cells were pretreated with analytes for one hour before introducing a specific agonist at the indicated concentration, and the agonist-induced DMR signals were monitored for one hour. Finally, for the DMR antagonist assay, cells underwent a 1-hour pretreatment with an antagonist before the addition of a specific agonist at the indicated concentration, and subsequent DMR signals were recorded over one hour.
# (§2) The receptor selectivity was evaluated against a set of G protein-coupled receptors (GPCRs), including opioid receptor (Delta/Kappa/NOP), dopamine receptor (D1/D2), orphan receptor (GPR35), adrenergic receptor (α2A/β2), serotonin receptor (5HT2A), histamine receptor (H1) and cannabinoid receptor (CB1). Following a 1-hour pretreatment with DK, a 2-min baseline was established before introducing probes and monitoring DMR signals for another hour. The cells and probes were as follows: Delta, HEK293-Delta, SNC162; Kappa, HEK293-Kappa, ICI199441; NOP, HEK293-NOP, MCOPPB; D1, HEK293-D1, dopamine; D2, HEK293-D2, dopamine; GPR35, CHO-K1-hGPR35, zaprinast; 5HT2A, HEK293-5HT2A, 5-hydroxytryptamine; α2A, HEK293-α2A, L-Noradrenaline; β2, A431, isoprenaline; H1, A431, histamine; CB1, CHO-K1-CB1, CP 55940. The other detailed process was the same as above.
# [1] = Pharmacokinetics, oral bioavailability; format: in vivo, SD male rats; details: rats, 20 mg/kg (method)
# Description: Oral bioavailability evaluation was as follows. SD male rats (about 250 g) were used in bioavailability evaluation (n = 3). […] were given a single dose of DK (20 mg/kg, 5 mL/kg, […].) through intragastric administration or tail vein injection. Blood (300 μL) was collected at 0.083, 0.167, 0.25, 0.5, 1, 2, 4, 6, 8, and 10 h, into EDTA tubes. Plasma was obtained by mixing with acetonitrile and centrifugation (3000 r/min, 10 min).
# Brain and plasma drug levels were measured by LC-30AD (Shimadzu Corporation Kyoto, Japan) and SCIEX QTRAP-6500 (AB Sciex, Foster City, CA, USA) and calculated by comparing with internal standard (koumine, 200 ng/mL). The used column was Waters ACQUITY UPLC BEH C18 (2.1*150 mm, 1.7 μm); the mobile phase was composed of (A) 0.1 % FA in water and (B) 0.1 % FA in ACN; the elution gradient was 20 % B (0–3 min), 20–40 % B (3–5 min), 40–95 % B (5–6 min); the flow rate was 0.3 mL/min; and detection was in the positive mode.
# dopamine receptor D1 = target: T3, dopamine receptor D1 (Homo sapiens, UniProt P21728); assay: DMR desensitization assay, HEK293-D1, probe dopamine; format: cell-based; details: 100 μM DK
# T3 construct: expressed in transfected cells; host or cells: HEK293-D1
# T3 sequence (P21728 whole entry): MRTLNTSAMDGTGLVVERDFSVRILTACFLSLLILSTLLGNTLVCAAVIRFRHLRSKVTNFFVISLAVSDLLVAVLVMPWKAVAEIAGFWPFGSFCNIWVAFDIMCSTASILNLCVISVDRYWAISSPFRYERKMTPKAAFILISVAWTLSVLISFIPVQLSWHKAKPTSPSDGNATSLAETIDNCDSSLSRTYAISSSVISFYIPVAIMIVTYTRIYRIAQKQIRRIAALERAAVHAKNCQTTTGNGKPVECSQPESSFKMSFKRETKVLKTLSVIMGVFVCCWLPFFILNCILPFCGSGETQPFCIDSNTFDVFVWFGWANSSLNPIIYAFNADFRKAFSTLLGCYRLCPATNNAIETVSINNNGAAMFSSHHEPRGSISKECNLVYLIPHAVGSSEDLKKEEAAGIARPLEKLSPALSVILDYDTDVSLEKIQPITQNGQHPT
# Description: as §1
# as §2, with “The other detailed process was the same as above.” left out
# T1 sequence (P11229 whole entry): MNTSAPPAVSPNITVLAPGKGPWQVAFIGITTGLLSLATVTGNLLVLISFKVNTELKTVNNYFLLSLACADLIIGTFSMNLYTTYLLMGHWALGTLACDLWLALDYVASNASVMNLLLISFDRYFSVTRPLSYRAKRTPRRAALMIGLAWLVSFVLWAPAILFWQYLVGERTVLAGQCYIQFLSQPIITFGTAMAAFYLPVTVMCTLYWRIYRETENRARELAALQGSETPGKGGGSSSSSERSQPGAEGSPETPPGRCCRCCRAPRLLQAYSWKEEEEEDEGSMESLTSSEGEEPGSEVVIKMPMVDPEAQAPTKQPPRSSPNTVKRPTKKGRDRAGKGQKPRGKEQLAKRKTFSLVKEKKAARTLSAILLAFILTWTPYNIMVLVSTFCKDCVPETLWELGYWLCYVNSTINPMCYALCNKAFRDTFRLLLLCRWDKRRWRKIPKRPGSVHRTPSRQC
smiles,measurement,setting,value
C=CC12CN(C)C3CC14c1ccccc1NC4C1CC2C3CO1 (stereo not shown) [DK],inhibition of carbachol-induced Ca2+ response,M1R,could not concentration-dependently inhibit
same,cytotoxicity (cell viability),CHO cells,noncytotoxic
same,DMR agonist response,Kappa opioid receptor; HEK293-Kappa cells,unable to trigger a concentration-dependent DMR response
same,probe-induced DMR response after DK pretreatment,"Kappa opioid receptor; HEK293-Kappa, 25 nM ICI199441, pretreatment one hour",had little effect on the DMR response produced by the respective probes
same,antagonist effect at high concentration (decrease of probe DMR response),"Kappa opioid receptor; HEK293-Kappa, ICI199441, high-concentration of DK",very weak antagonist effects
same,AUC,"[1]; male, SD (Sprague-Dawley), rat, iv, plasma, i.v., read-out: (AUC)0-12 h, intravenous injection",902 ng·h/mL
same,bioavailability,"[1]; male, SD (Sprague-Dawley), rat, plasma, oral, i.g. vs i.v.",42.6%
same,AUC,"[1]; male, SD (Sprague-Dawley), rat, po, plasma, i.g., read-out: (AUC)0-12 h, intragastric administration",384 ng·h/mL
same,time of highest plasma concentration,[1]; intragastric (i.g.) administration,15 min
same,reduction of probe DMR response (desensitization),dopamine receptor D1,almost unable to reduce the response

# — paper PMC12302426, “Dihydrokoumine, a dual-target analgesic with reduced side effects isolated from a traditional Chinese medicine” (Journal of Advanced Research, 2024)
